# Key:
# Experiment in all cases: MIC, antibacterial and synergistic activity
# Assay type in all cases: cell-based
# P. aerug JMI 149 = P. aerug JMI 149 (Bla+++D+)
# E. coli JMI 4080 = tested on: E. coli JMI 4080
# E. cloacae JMI 36 = E. cloacae JMI 36 (P99)
# K.pneumo JMI 4109 = K.pneumo JMI 4109 (SHV-1, SHV-12); substance alone
# K. pneumo JMI 4088 = K. pneumo JMI 4088 (KPC-3 (Cpase)); substance alone
# K. pneumo JMI 2674 = K. pneumo JMI 2674 (CTX-M15 (ESBL)); substance alone
# E. coli ATCC 25922 = E. coli ATCC 25922 (Wt)
# E. coli JMI 11103 = tested on: E. coli JMI 11103
# A. baumanii JMI 2659 = A. baumanii JMI 2659 (Ges-14 (Cpase))
# E. coli JMI 2671 = tested on: E. coli JMI 2671
# Method in brief: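 Synergy testing: antibiotic MIC vs MBL-producing strains in presence of inhibitor, fixed 4 µg/mL.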
# E. coli JMI 2665 = tested on: E. coli JMI 2665
# Description: In the Tables 10 - 12, compounds herein disclosed were tested in combination with various antibiotics against metallo β-lactamase producing bacteria. Table 3: Synergy of the inhibitor Ex. 1 (4 µg/mL) in combination with antibiotics
# K. pneumo JMI 4106 = K. pneumo JMI 4106 (KPC-3, TEM-1, SHV-12, SHV-141)
# E. coli JMI 10767 = E. coli JMI 10767 (Wt)
# K. pneumo JMI 2697 = K. pneumo JMI 2697 (IMP-4 (Cpase))
# Description: (§1) In the Tables 10 - 12, compounds herein disclosed were tested in combination with various antibiotics against metallo β-lactamase producing bacteria.
# E. coli JMI 2692 = E. coli JMI 2692 (NDM-1, TEM-1, CTX-M-15)
# Description: as §1
# K. pneumo JMI 2693 = K. pneumo JMI 2693 (NDM-1 (Cpase))
# Description: as §1
# K. pneumo JMI 2673 = K. pneumo JMI 2673 (CTX-M14 (ESBL)); substance alone
# P. aerug JMI 2686 = P. aerug JMI 2686 (KPC-2 (Cpase)); substance alone
# K. pneumo JMI 2681 = K. pneumo JMI 2681 (Oxa-48 (Cpase))
# E. coli JMI 10770 = conditions: Escherichia coli, JMI10770; E. coli JMI 10770 (CTX-M15 (Hyper ESBL)); substance alone
# E. coli JMI 10768 = E. coli JMI 10768 (CTX-M15 (Weak ESBL)); Meropenem + inhibitor at 4 µg/mL
# E.coli JMI 4103 = E.coli JMI 4103 (KPC-2, Tem-1, CMY-Type)
# [1] = Aztreonam + inhibitor at 4 µg/mL
# [2] = Ceftazidime + inhibitor at 4 µg/mL
# [3] = Meropenem + inhibitor at 4 µg/mL
smiles,measurement,setting,value
"NCCONC(=O)[C@@H]1CC[C@@H]2CN1C(=O)N2OS(=O)(=O)O [Ex. 3, (2S,5R)-N-(2-Aminoethoxy)-7-oxo-6-(sulfooxy)-1,6-diazabicyclo[3.2.1]octane-2-carboxamide]",MIC Aztreonam + inhibitor,P. aerug JMI 149; [1],>4 µg/mL
same,MIC Ceftazidime + inhibitor,P. aerug JMI 149; [2],4 µg/mL
same,MIC Meropenem + inhibitor,P. aerug JMI 149; [3],0.25 µg/mL
same,MIC,"P. aerug JMI 149; substance alone, read-out: MIC",> 16 µg/mL
same,MIC Aztreonam + inhibitor,"E. coli JMI 4080; E. coli JMI 4080 (Tem-10), Aztreonam + inhibitor at 4 µg/mL",≤0.062 µg/mL
same,MIC Ceftazidime + inhibitor,"E. coli JMI 4080; E. coli JMI 4080 (Tem-10), Ceftazidime + inhibitor at 4 µg/mL",≤0.25 µg/mL
same,MIC Meropenem + inhibitor,"E. coli JMI 4080; E. coli JMI 4080 (Tem-10), Meropenem + inhibitor at 4 µg/mL",≤0.0312 µg/mL
same,MIC,"E. coli JMI 4080; Escherichia coli, JMI4080, E. coli JMI 4080 (Tem-10), substance alone",2 µg/mL
same,MIC Aztreonam + inhibitor,E. cloacae JMI 36; [1],>4 µg/mL
same,MIC Ceftazidime + inhibitor,E. cloacae JMI 36; [2],0.5 µg/mL
same,MIC Meropenem + inhibitor,E. cloacae JMI 36; [3],0.062 µg/mL
same,MIC,"E. cloacae JMI 36; Enterobacter cloacae, JMI36, substance alone, read-out: MIC",> 16 µg/mL
same,MIC,K.pneumo JMI 4109,2 µg/mL
same,MIC,K. pneumo JMI 4088,2 µg/mL
same,MIC,K. pneumo JMI 2674,> 16 µg/mL
same,MIC Aztreonam + inhibitor,E. coli ATCC 25922; [1],≤0.062 µg/mL
same,MIC Ceftazidime + inhibitor,E. coli ATCC 25922; [2],≤0.25 µg/mL
same,MIC Meropenem + inhibitor,E. coli ATCC 25922; [3],≤0.0312 µg/mL
same,MIC,"E. coli ATCC 25922; Escherichia coli, ATCC25922, substance alone",2 µg/mL
same,MIC Aztreonam + inhibitor,"E. coli JMI 11103; E. coli JMI 11103 (CTX-M15 (Intermediate ESBL)), Aztreonam + inhibitor at 4 µg/mL",0.5 µg/mL
same,MIC Ceftazidime + inhibitor,"E. coli JMI 11103; E. coli JMI 11103 (CTX-M15 (Intermediate ESBL)), Ceftazidime + inhibitor at 4 µg/mL",0.5 µg/mL
same,MIC Meropenem + inhibitor,"E. coli JMI 11103; E. coli JMI 11103 (CTX-M15 (Intermediate ESBL)), Meropenem + inhibitor at 4 µg/mL",0.062 µg/mL
same,MIC,"E. coli JMI 11103; Escherichia coli, JMI11103, E. coli JMI 11103 (CTX-M15 (Intermediate ESBL)), substance alone",4 µg/mL
same,MIC Aztreonam + inhibitor,A. baumanii JMI 2659; [1],>4 µg/mL
same,MIC Ceftazidime + inhibitor,A. baumanii JMI 2659; [2],>16 µg/mL
same,MIC Meropenem + inhibitor,A. baumanii JMI 2659; [3],2 µg/mL
same,MIC,"A. baumanii JMI 2659; Acinetobacter baumannii, JMI2659, substance alone, read-out: MIC",> 16 µg/mL
same,MIC Aztreonam + inhibitor,"E. coli JMI 2671; E. coli JMI 2671 (VIM-19 (Cpase)), Aztreonam + inhibitor at 4 µg/mL",≤0.062 µg/mL
same,MIC Ceftazidime + inhibitor,"E. coli JMI 2671; E. coli JMI 2671 (VIM-19 (Cpase)), Ceftazidime + inhibitor at 4 µg/mL",≤0.25 µg/mL
same,MIC Meropenem + inhibitor,"E. coli JMI 2671; E. coli JMI 2671 (VIM-19 (Cpase)), Meropenem + inhibitor at 4 µg/mL",≤0.0312 µg/mL
same,MIC,"E. coli JMI 2671; Escherichia coli, JMI2671, E. coli JMI 2671 (VIM-19 (Cpase)), substance alone",2 µg/mL
same,MIC Aztreonam + inhibitor,"E. coli JMI 2665; E. coli JMI 2665 (CMY-2 (Plasmid Cpase)), Aztreonam + inhibitor at 4 µg/mL",≤0.062 µg/mL
same,MIC Ceftazidime + inhibitor,"E. coli JMI 2665; E. coli JMI 2665 (CMY-2 (Plasmid Cpase)), Ceftazidime + inhibitor at 4 µg/mL",≤0.25 µg/mL
same,MIC,"E. coli JMI 2665; Escherichia coli, JMI2665",2 µg/mL
same,MIC Aztreonam + inhibitor,K. pneumo JMI 4106; [1],≤0.062 µg/mL
same,MIC Ceftazidime + inhibitor,K. pneumo JMI 4106; [2],≤0.25 µg/mL
same,MIC Meropenem + inhibitor,K. pneumo JMI 4106; [3],≤0.0312 µg/mL
same,MIC,"K. pneumo JMI 4106; substance alone, read-out: MIC",2 µg/mL
same,MIC Meropenem + inhibitor,E. coli JMI 10767; [3],≤0.0312 µg/mL
same,MIC,"E. coli JMI 10767; Escherichia coli, JMI10767, substance alone",2 µg/mL
same,MIC Aztreonam + inhibitor,K. pneumo JMI 2697; [1],0.25 µg/mL
same,MIC Ceftazidime + inhibitor,K. pneumo JMI 2697; [2],0.5 µg/mL
same,MIC Meropenem + inhibitor,K. pneumo JMI 2697; [3],0.25 µg/mL
same,MIC,K. pneumo JMI 2697; substance alone,8 µg/mL
same,MIC Aztreonam + inhibitor,E. coli JMI 2692; [1],≤0.062 µg/mL
same,MIC Ceftazidime + inhibitor,E. coli JMI 2692; [2],≤0.25 µg/mL
same,MIC Meropenem + inhibitor,E. coli JMI 2692; [3],≤0.0312 µg/mL
same,MIC,"E. coli JMI 2692; Escherichia coli, JMI2692, substance alone, read-out: MIC",2 µg/mL
same,MIC Aztreonam + inhibitor,K. pneumo JMI 2693; [1],0.25 µg/mL
same,MIC Ceftazidime + inhibitor,K. pneumo JMI 2693; [2],≤0.25 µg/mL
same,MIC Meropenem + inhibitor,K. pneumo JMI 2693; [3],≤0.0312 µg/mL
same,MIC,K. pneumo JMI 2693; substance alone,8 µg/mL
same,MIC,K. pneumo JMI 2673,> 16 µg/mL
same,MIC,P. aerug JMI 2686,> 16 µg/mL
same,MIC Aztreonam + inhibitor,K. pneumo JMI 2681; [1],1 µg/mL
same,MIC Ceftazidime + inhibitor,K. pneumo JMI 2681; [2],≤0.25 µg/mL
same,MIC Meropenem + inhibitor,K. pneumo JMI 2681; [3],0.5 µg/mL
same,MIC,"K. pneumo JMI 2681; substance alone, read-out: MIC",> 16 µg/mL
same,MIC,E. coli JMI 10770,> 16 µg/mL
same,MIC Meropenem + inhibitor,E. coli JMI 10768,0.062 µg/mL
same,MIC Aztreonam + inhibitor,E.coli JMI 4103; [1],≤0.062 µg/mL
same,MIC Ceftazidime + inhibitor,E.coli JMI 4103; [2],≤0.25 µg/mL
same,MIC Meropenem + inhibitor,E.coli JMI 4103; [3],≤0.0312 µg/mL
same,MIC,"E.coli JMI 4103; Escherichia coli, JMI4103, substance alone",4 µg/mL

# From EP2931723B1, “NEW BICYCLIC COMPOUNDS AND THEIR USE AS ANTIBACTERIAL AGENTS AND -LACTAMASE INHIBITORS” (Fedora Pharmaceuticals Inc., priority 2012, dated 2014)
